Assay results from US6235731A, “Fused imidazopyridine derivatives as antihyperlipidemic agents” (Takeda Chemical Industries, Ltd., priority 1996, dated 2001).
Counter-ions that a name gives are not always drawn. Like-named read-outs stand apart in the source and are kept apart here.

Columns and labels:
[1] = system: Wistar fatty rats; test: Lipid-lowering effect in Wistar fatty rats; type: in vivo, Wistar fatty rat; conditions: 30 mg/kg/day by stomach tube, 2 weeks, plasma, Mean ± SD (n = 6)
Protocol: Lipid-lowering effect in Wistar fatty rats
Male Waistar fatty rats were maintained on free access to normal diet (CE-2, Clea Japan) and water. Body weights were measured at 10 weeks of age and the blood was taken from the orbital sinus and determined for plasma total cholesterol (TC), triglyceride (TG), glucose, and HDL-cholesterol (HDL-C) with Wako Pure Chemical and Kyowa Medex kits using an automatic analyzer (Hitachi 7070). Non-HDL-cholesterol (non-HDL-C) was calculated by subtracting HDL-cholesterol from total cholesterol.
The rats were divided into 2 groups (n=6) and 30 mg/kg/day of the test compound (Example 22) in 0.5% methylcellulose solution was administered by a stomach tube to one of the groups once daily for 2 weeks (test group). 0.5% Methylcellulose solution only was similarly administered to the other group (control group). On day 14, body weights were measured again and the blood was taken from the orbital sinus and determined for plasma total cholesterol, HDL-cholesterol, triglyceride, and glucose in the same manner as before.

[2] = system: Golden Syrian hamsters; test: Cholesterol lowering activity in Golden hamster; type: in vivo, Golden Syrian hamster; conditions: Mesocricetus auratus, po, 96 h, 20 mg/kg/d orally, once daily for 4 days
Protocol: Cholesterol lowering activity in Golden hamster Male Golden Syrian hamsters (110-130 g) were maintained freely on water and a laboratory diet (CE-2, Clea Japan Inc., Tokyo). […] Blood was taken from orbital sinus and plasma total cholesterol and triglyceride were measured an automatic analyzer (Hitachi 7070, Hitachi Ltd., Tokyo) using commercial kits (Wako Pure Chemical Industries, Osaka), and plasma HDL-cholesterol using a commercial kit (Kyowa Medex Co., Ltd., Tokyo) before and after the treatment of compound. Non-HDL cholesterol was calculated by subtracting HDL-cholesterol from total cholesterol. |Non-HDL-C (non-HDL-cholesterol): [total cholesterol]-[HDL-cholesterol] |TG: triglyceride

[3] = system: HepG2 cells; test: Increase in LDL-binding to HepG2 cells; type: cell-based; conditions: 10 μM test compound, 20 hours, specific human [125I]LDL binding, normalized by protein, read-out: LDL binding (% of control)
Protocol: Increase in LDL-binding to HepG2 cells LDL-binding was measured according to the method of J. L. Goldstein. HepG2 cells were purchased from ATCC (American type culture collection) and seeded in 6-well plate with collagen coating (Sumitomo Bakelite), and cultured in Eagle's minimum essential medium (MEM) containing 10%-fetal bovine serum at 37° C. for 4 days. […] After washing with phosphate buffered saline cells were incubated with MEM containing 25 mM-HEPES and 1%-bovine serum albumin (fatty acid free) in the presence of human [^125 I]LDL (4 μg/ml) at 6° C. for 2 hours. After washing cells bound [^125 I]LDL was dissociated with dextran sulfate and the radioactivity was measured (total binding). [^125 I]LDL binding to cells was also measured in the presence of LDL (300 μg/ml) as a non-specific binding (NSB). Specific [^125 I]LDL-binding was calculated by subtracting NSB from total binding and was normalized by protein content measured by the method of lowry. Data was expressed as percentage of the control.

[4] = plasma triglyceride, read-out: TG (% of control)
[5] = plasma, [total cholesterol]-[HDL-cholesterol], read-out: Non-HDL-C (% of control)

Compound	TG ([1]; * P < 0.05 vs control group (324.7 ± 74.2)) [mg/dL]	Glucose ([1]; * P < 0.05 vs control group (366.8 ± 72.0)) [mg/dL]	Non-HDL-C ([1]; ** P < 0.01 vs control group (39.9 ± 3.7)) [mg/dL]	response vs control in vivo at 20 mg/kg [2, 4] [%]	response vs control in vivo at 20 mg/kg [2, 5] [%]	activity at 10 µM [3] [%]
O=C(NCC1CCN(CCCc2ccccc2)CC1)C1=Cc2cnc3cccc(n23)S1 [Example 22, N-[1-(3-phenylpropan-1-yl)piperidin-4-ylmethyl]-5-thia-1,8b-diazaacenaphthylene-4-carboxamide Dihydrochloride]	258.3 ± 38.4	268.2 ± 81.9	30.0 ± 5.2	62.3	58.8	126
O=C(NCCCN1CCC(c2ccccc2)CC1)C1=Cc2cnc3cccc(n23)S1 [Example 27, N-[3-(4-phenylpiperidin-1-yl)propan-1-yl]-5-thia-1,8b-diazaacenaphthylene-4-carboxamide Dihydrochloride]	–	–	–	83.9	73.9	168
